Results as given in patent US20220362262A1, “METHODS AND COMPOSITIONS FOR TISSUE REGENERATION” (Institute of Zoology, Chinese Academy of Sciences, priority 2019, published 2022).
“Also recorded” adds a separate entry of the source. Where two headings read alike, the source gives them in different places.

Tests used:
[1] = test system: PPARG; conditions: agonist of PPARG; cited from earlier work
[2] = test system: PPARA; conditions: agonist of PPARA; cited from earlier work
[3] = test system: muscle stem cells and myoblasts in gastrocnemius, quadriceps and TA muscle; experiment: Stem cell and myoblast activation in skeletal muscles without injury, immunofluorescence 2 days after single bolus; assay type: in vivo, mice; conditions: gastrocnemius muscle, 2 days after intraperitoneal single bolus, with or without fenofibrate or WY-14643
Excerpt: (§1) Some tissues were flash frozen for cryosectioning.

[4] = test system: human myocytes; experiment: Seahorse O2 consumption rates in differentiating myocytes; assay type: cell-based; conditions: etomoxir at early 0-12 h and 12-24 h time-windows only
Description: HSKM progenitors were seeded onto Seahorse XF96 Cell Culture Microplate (Agilent), pre-coated with gelatin (0.1%, Merck-Millipore), in growth media at 10,000 cells per well. […] Before performing the Seahorse XF cell Mito Stress Test assay, cell culture media were replaced with assay media (Seahorse XF DMEM Medium, pH 7.4, 2 mM pyruvate, 2 mM glutamine) (Agilent) and incubated in a CO2-free incubator at 37° C. for 1 hour to equilibrate temperature and pH for each well. During the assay, Oligomycin (2 uM, Agilent), FCCP (0.5 uM, Agilent), and a mixture of Antimycin A and Rotenone (0.5 uM, Agilent), were injected sequentially and measurements were taken according to manufacturer's instructions. The data was analyzed using WAVE software.

[5] = test system: primary human myoblasts / myocytes; experiment: Etomoxir (CPT1 inhibitor) at different time-windows of myoblast differentiation: cell numbers, Western blot; assay type: cell-based
[6] = test system: pure primary human myoblasts; experiment: Pure primary human myoblasts treated with PGI2-related drugs (Western blot, qRT-PCR); assay type: cell-based; conditions: pure primary human myoblasts, relative to DMSO
[7] = test system: cryoinjured TA muscle of aged and sarcopenic 2-year-old mice
Description: Liquid chromatography-tandem mass spectrometry (LC-MS/MS) metabolomics and lipidomics analyses were performed according to previously published protocols (Chong et al., 2012).
Eight week old NOD scid gamma (NSG) or C57BL/6 mice were anaesthetized with a mixture of ketamine and xylazine (120 mg/kg and 8 mg/kg respectively) via intraperitoneal injection. After successful anesthetization, the skin over the tibialis anterior (TA) or gastrocnemius or quadriceps muscle was disinfected by wiping with 70% ethanol and a 3 mm incision was made over the TA muscle. A dry-ice-chilled 4-mm metal probe was directly applied onto the exposed skeletal muscle for three cycles of five seconds to induce cryo-injury. Thereafter, the incision was immediately sutured using a surgical suture stapler. Upon recovery under heat lamps for a period of 2 hours, the mice were randomly allocated to each treatment groups. […] Samples were serially sectioned until depleted and haemotoxylin and eosin (H&E) staining was performed on every 12th 5 um-thick tissue section. After microscopy imaging, the area of the cryo-injured myofibers was quantified using ImageJ.
Tibialis anterior (TA) tissue samples embedded in paraffin were sectioned using a microtome and transferred onto Leica Microsystems Plus Slides. Some tissues were flash frozen for cryosectioning. Paraffin-embedded sections were deparaffinized in xylene (Merck) for 2 washes (10 mins) and then transferred sequentially into 100% EtOH (Merck), 100% EtOH, 95% EtOH and 70% EtOH (2 mins) at room temperature. The sections were then rehydrated in deionized water (3 mins). Antigen retrieval was carried out using the 2100 Retriever in sodium citrate buffer (Merck, pH 6.2, 30 mins). Slides were then cooled in cold PBS (15 mins) and blocked in blocking buffer at room temperature (30 mins). Primary antibody staining was conducted in blocking buffer at 4° C. overnight with the following antibodies, GFP (1:500, sc-9996, Santa Cruz), Pax7 (5 ug/ml, 042349, DSHB), MyoD (5 ug/ml, sc-377460, Santa Cruz), Ki67 (1:100, 14-5698-82, Thermo Fisher), embryonic MHC (Myh3; 1:100, sc-53091, Santa Cruz), PDGFRa (5 ug/mL, AF1062, R&D), F4/80 (1:100, ab6640, Abcam), PPARG (1:1000, 2443S, CST), and myosin heavy chain eFluor 660 (1:20, 50-6503-82, eBioscience). After the slides were washed thrice in PBS (10 mins) and counterstained with DAPI, secondary antibody staining for GFP was conducted in blocking buffer at room temperature (1 hr) with goat anti-mouse IgG secondary antibody, Alexa Fluor 488 (1:500, A11001, Thermo Fisher).

[8] = test system: cryoinjured TA muscle; experiment: Muscle regeneration after cryoinjury: regenerative index, myogenic proteins, myofiber diameter, grip strength after bolus injection; assay type: in vivo, mice
Excerpt: as §1

[9] = test system: GFP+ human myocytes engrafted into cryoinjured TA muscle; conditions: myoblasts pre-treated 0-24 h, injected 24 h after cryoinjury
Excerpt: as §1

[10] = test system: fibrosis in TA muscle, liver, skin and heart of 2-year old mice; experiment: Aging-induced fibrosis and fibrotic precursors in 2-year old mice after daily injection; assay type: in vivo; conditions: for relative changes in the % fibrotic area (Masson trichrome staining) / relative changes in the percentage fraction of fibrotic precursors (PGDFRA-positive and Ki67-positive): 7 days post-injection, 2-year old mice
Excerpt: as §1

[11] = test system: primary human myoblasts / myocytes
Description: Primary human skeletal muscle (HSKM) progenitors (Gibco) were cultured on gelatin solution (0.1%, Merck-Millipore)-coated plate and incubated in a humidified atmosphere (5% CO2 and 37° C.) with growth medium composed of DMEM/F-12 (Gibco) supplemented with fetal bovine serum (FBS) (20%, GE Healthcare), L-glutamine (1%, Gibco) and penicillin-streptomycin (1%, Gibco). Confluent HSKM progenitors were induced to differentiate by replacing growth media with differentiation medium, comprising of DMEM/F-12, KnockOut Serum Replacement (2%, Gibco), L-glutamine (1%, Gibco) and penicillin-streptomycin (1%, Gibco).
RNA was extracted using TRIzol (Thermo Fisher) and reverse transcribed to cDNA with Superscript III (Thermo Fisher) according to manufacturer's instructions. The synthesized cDNA was diluted 5× in H2O before performing qPCR with KAPA SYBR FAST (Merck) on ABI Prism 7900HT (Applied Biosystems) real-time PCR system according to manufacturers' instructions.
Cells were washed with PBS (Thermo Fisher) and fixed with paraformaldehyde (PFA) (4%, Electron Microscopy Sciences) at room temperature for 10 mins. Cells were stained with primary antibody myosin heavy chain eFluor 660 (1:20, 50-6503-82, Thermo Fisher) at 4 C overnight. DAPI (Merck) was used as a nuclear counterstain according to manufacturer's recommendations. Stained cells were imaged with a Zeiss fluorescence microscope.

[12] = test system: cryoinjured tibialis anterior (TA) muscle
Description: Eight week old NOD scid gamma (NSG) or C57BL/6 mice were anaesthetized with a mixture of ketamine and xylazine (120 mg/kg and 8 mg/kg respectively) via intraperitoneal injection. After successful anesthetization, the skin over the tibialis anterior (TA) or gastrocnemius or quadriceps muscle was disinfected by wiping with 70% ethanol and a 3 mm incision was made over the TA muscle. A dry-ice-chilled 4-mm metal probe was directly applied onto the exposed skeletal muscle for three cycles of five seconds to induce cryo-injury. Thereafter, the incision was immediately sutured using a surgical suture stapler. Upon recovery under heat lamps for a period of 2 hours, the mice were randomly allocated to each treatment groups. […] Samples were serially sectioned until depleted and haemotoxylin and eosin (H&E) staining was performed on every 12th 5 um-thick tissue section. After microscopy imaging, the area of the cryo-injured myofibers was quantified using ImageJ. For western blot samples, TA muscles were snap-frozen in liquid nitrogen and homogenized in RIPA buffer (Thermo Fisher) supplemented with protease inhibitor cocktails I and II (Merck) and phosphatase inhibitor cocktail set III (Merck) using TissueLyser II (Qiagen).

[13] = 2-year old mice, injected at 0 h after injury, 27 days post-injury

Cc1cccc(Nc2cc(Cl)nc(SCC(=O)O)n2)c1C [WY-14643, pirinixic acid]
EC50 [1]: 32 µM | EC50 [2]: 0.63 µM | percentage fraction of myoblasts (MyoD-positive cells) [3]: significantly increased | percentage fraction of proliferative myoblasts (MyoD-positive Ki67-positive cells) [3]: significantly increased

CCOC(=O)[C@@]1(CCCCCCOc2ccc(Cl)cc2)CO1 [etomoxir]
O2 consumption rates [4]: decrease O2 consumption rates | MHC and MYOG protein phenotype (Western blot) ([5]; 0-24 h mitochondrial FAO inhibition): MHC^low; MYOG^low | MHC and MYOG protein phenotype (Western blot) ([5]; 24 h-48 h mitochondrial FAO inhibition): MHC^low; MYOG^high | MHC and MYOG protein phenotype (Western blot) ([5]; 48 h-72 h mitochondrial FAO inhibition): MHC^high; MYOG^low | MHC and MYOG protein phenotype (Western blot) ([5]; 72 h-96 h mitochondrial FAO inhibition): MHC^high; MYOG^high | myocyte survival (relative cell numbers) ([5]; treatment at 0-24 h and 24-48 h of myoblast differentiation): severely compromised myocyte survival

CN(CCOc1ccc(CC2SC(=O)NC2=O)cc1)c1ccccn1 (centres unmarked) [rosiglitazone]
H3K9ac and MyoD protein (Western blot) [6]: followed the same pattern of regulation as PPARG | PPARG protein levels (Western blot) [6]: stabilize and/or upregulate | regenerative index (fraction of nuclei in embryonic MHC-positive myofibers) ([7]; 2-year old mice, injected at 0 h after injury, 6 days post-injury): can restore aged muscle regeneration; also recorded: significantly improved | fibrotic area in the TA muscle (Masson trichrome) [7, 13]: can reverse the aged muscle fibrosis; also recorded: significantly reduced fibrosis | grip strength [7, 13]: can partially restore grip strength | regenerative index (fraction of nuclei in embryonic MHC-positive myofibers) ([7]; 2-year old mice, injected at 24 h and 48 h time-points): did not show as strong an improvement | body weight or aging-induced obesity ([7]; 2-year-old mice, 27 days after single intramuscular bolus): no significant changes; also recorded: insufficient to affect total body weight and obesity | FAO intermediates (acyl-carnitines) / FAO flux in TA muscle, LC-MS/MS ([7]; 2-year-old mice, bolus at 0 h post-injury, day 6): led to an induction; also recorded: transiently increase FAO flux | grip strength ([8]; 14 days post-injury, 6-week old mice, prostaglandin at 0 h, rosiglitazone at 24 h post-injury): partially restore grip strength | hypertrophic growth (myofiber cross-sectional Feret diameters) ([8]; TA muscle 6.5 days post-injury, prostaglandin at day 0, rosiglitazone at day 1): increase hypertrophic growth | regenerative index (fraction of nuclei in embryonic MHC-positive myofibers) ([8]; TA muscle 6.5 days post-injury, single bolus, combinations: prostaglandin at day 0, rosiglitazone at day 1, relative to DMSO vehicle): significantly increase muscle regeneration | MHC protein expression among the engrafting human myocytes [9]: significantly enhanced | relative changes in the % fibrotic area (Masson trichrome staining) ([10]; TA muscle, daily injection): partially reverse the aged muscle fibrosis; also recorded: significant reversal of aging-induced fibrosis | relative changes in the percentage fraction of fibrotic precursors (PGDFRA-positive and Ki67-positive) ([10]; TA muscle, daily injection): partially suppress the aged muscle fibrotic precursors | relative changes in the % fibrotic area (Masson trichrome staining) ([10]; heart tissue, daily injection): partially reverse the aged cardiac fibrosis | relative changes in the percentage fraction of fibrotic precursors (PGDFRA-positive and Ki67-positive) ([10]; heart tissue, daily injection): partially suppress the aged cardiac fibrotic precursors | relative changes in the % fibrotic area (Masson trichrome staining) ([10]; liver tissue, daily injection): partially reverse the aged liver fibrosis | relative changes in the percentage fraction of fibrotic precursors (PGDFRA-positive and Ki67-positive) ([10]; liver tissue, daily injection): partially suppress the aged liver fibrotic precursors | PDGFRA+ Ki67+ fibrotic precursor numbers in multiple non-skeletal muscle tissues ([10]; liver, skin and heart, 2-year-old mice): suppress | aging-induced fibrosis (fibrotic area) in multiple non-skeletal muscle tissues ([10]; liver, skin and heart, daily injection, 2-year-old mice): significant reversal of aging-induced fibrosis | relative changes in the % fibrotic area (Masson trichrome staining) ([10]; skin tissue, daily injection): partially reverse the aged skin fibrosis | relative changes in the percentage fraction of fibrotic precursors (PGDFRA-positive and Ki67-positive) ([10]; skin tissue, daily injection): partially suppress the aged skin fibrotic precursors | myogenesis (MHC protein and α-actinin immunostaining) ([11]; 0-24 h and 24-48 h time-windows, low density): significantly enhanced myogenesis | myotube/myofiber maturity and hypertrophy (immunofluorescence) ([11]; 0-24 h time-window, high density): more mature and hypertrophic human myotubes; also recorded: significantly more mature and hypertrophic; also recorded: induces myofibers with wider diameter and higher expression of MHC and α-actinin | mRNA levels of myogenin (MYOG), adult type I myosin heavy chain (MYH7) and perinatal myosin heavy chain (MYH8) ([11]; 0-24 h time-window, low density, at the end of 96 h): uniquely upregulated | myocyte/myotube size and MHC, α-actinin expression (immunofluorescence) ([11]; different time-windows, low density conditions): induces larger myocytes and myotubes with higher expression levels of MHC and α-actinin | mRNA levels of MYOG, MYH7 and MYH8 ([11]; other time-windows of treatment, low density, at the end of 96 h): no significant effects | myogenesis (MHC protein and α-actinin immunostaining) ([11]; other time-windows, low density): suppressed myogenesis | MHC protein isoforms and α-actinin protein levels (Western blot) ([12]; injection at 24 h and 48 h, relative to control and 0 h): stronger expression | skeletal muscle regeneration (remaining necrotic area) ([12]; injection at 24 h and 48 h after injury, 4 days post-injury): improved skeletal muscle regeneration | MyoD and MyoG protein expression (Western blot) ([12]; intramuscular injection at 24 h post-cryoinjury, TA 4 days post-injury): elicited the strongest expression
